Here are results for 15 compounds from PubChem BioAssay (NCI).

Test systems include CCRF-CEM leukemia; HCT-116 colon; K-562 leukemia; NCI-H23 lung; OVCAR-4 ovarian; SN12C renal; U251 CNS; UACC-257 melanoma; UACC-62 melanoma.
What all share (experiment): growth of human tumour cells (NCI), 48 h

Where “and” joins values, the source holds several entries; their conditions need not be identical. Equal entries are not always repeated.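 Five compound concentrations were applied to cells in 96-well plates for 48 hours; endpoints were derived by simple linear interpolation of the resulting dose-response curve. GI50: concentration for 50% inhibition of growth. Definition used: TGI = concentration required for complete inhibition of growth.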 Some results are limits rather than exact numbers.

For `CSc1nc2nn(Cc3ccccc3)cc2c(=O)[nH]1`, the TGI in the test with CCRF-CEM leukemia, in the test with HCT-116 colon, in the test with K-562 leukemia, in the test with NCI-H23 lung, with OVCAR-4 ovarian and in the test on SN12C renal was above 100 µM each time. Moreover, the TGI in the test on U251 CNS, in the test on UACC-257 melanoma and with UACC-62 melanoma was above 100 µM throughout.
With `Cc1[nH]c2ccccc2c1CC/C(=N\Nc1ccccc1)c1ccccc1`, the TGI in the test with CCRF-CEM leukemia, in the test on HCT-116 colon, in the test on K-562 leukemia, in the test with NCI-H23 lung, in the test on OVCAR-4 ovarian and with U251 CNS was above 100 µM throughout. The TGI in the test with UACC-257 melanoma and in the test with UACC-62 melanoma was above 100 µM in each case.
As for `COc1cccc(-c2cc(=O)c3cc(N4CCOCC4)ccc3[nH]2)c1`, the GI50 with CCRF-CEM leukemia was 0.0218 µM; with HCT-116 colon, 0.0371 µM; with K-562 leukemia it was 0.0267 µM; in the test with NCI-H23 lung, 0.55 µM; in the test on SN12C renal it was 0.0868 µM; in the test on UACC-257 melanoma, 0.02 µM. The GI50 in the test with UACC-62 melanoma is 0.041 µM. The TGI was 0.111 µM in the test with CCRF-CEM leukemia, 0.179 µM with K-562 leukemia, above 100 µM with SN12C renal and above 100 µM with UACC-257 melanoma.
Regarding `CCOc1ccc(/C=C/c2cc(OC)c(OC)c(OC)c2)cc1`, the TGI with CCRF-CEM leukemia was above 66.8 µM; with HCT-116 colon, 15.2 µM; in the test with K-562 leukemia, above 100 µM; with NCI-H23 lung it was above 45.6 µM; with OVCAR-4 ovarian, above 100 µM; in the test with SN12C renal, above 28 µM. Besides, the TGI in the test on U251 CNS was 13.2 µM; in the test on UACC-257 melanoma, above 100 µM; with UACC-62 melanoma, above 100 µM.
Take `C[C@@H](NS(=O)(=O)c1ccc(NC(=O)c2ccccc2)cc1)C(=O)O`: the TGI with CCRF-CEM leukemia, in the test with K-562 leukemia, with NCI-H23 lung, with OVCAR-4 ovarian, with SN12C renal and in the test with U251 CNS was above 100 µM throughout. In addition, the TGI in the test on UACC-257 melanoma and in the test with UACC-62 melanoma was above 100 µM each time.
Take `OCC[N+]12CCCN1CCC2`: the TGI in the test on CCRF-CEM leukemia, with HCT-116 colon, in the test with K-562 leukemia, in the test with NCI-H23 lung, in the test with OVCAR-4 ovarian and in the test with SN12C renal was above 100 µM in each case. Also, the TGI in the test with U251 CNS, in the test with UACC-257 melanoma and with UACC-62 melanoma was above 100 µM in each case.
For the compound `CN(C)CCC(CCN(C)C)=NO`, the TGI with CCRF-CEM leukemia, in the test on HCT-116 colon, in the test on K-562 leukemia, in the test with NCI-H23 lung, in the test with OVCAR-4 ovarian and in the test on SN12C renal was above 100 µM each time. Besides, the TGI in the test on U251 CNS, in the test on UACC-257 melanoma and in the test on UACC-62 melanoma was above 100 µM throughout.
Regarding `CCOC(=O)C(CCC(N)=O)(CCC(=O)OC)C(=O)OCC`, the TGI in the test with HCT-116 colon, in the test with K-562 leukemia, in the test on NCI-H23 lung, with OVCAR-4 ovarian, in the test with SN12C renal and in the test with U251 CNS was above 100 µM throughout. In addition, the TGI with UACC-257 melanoma and with UACC-62 melanoma was above 100 µM each time.
For the compound `COC(=O)c1ncc2c(=O)[nH]c3ccccc3c2c1C(=O)OC`, the TGI in the test with CCRF-CEM leukemia, with HCT-116 colon, with K-562 leukemia, in the test on NCI-H23 lung, in the test on OVCAR-4 ovarian and in the test with SN12C renal was above 100 µM each time. Besides, the TGI in the test on UACC-257 melanoma and with UACC-62 melanoma was above 100 µM in each case.
Take `CC(=O)O[C@H]1CCN2C(=O)C=CC(OCc3ccccc3)C12` (stereo partly drawn): the TGI in the test on CCRF-CEM leukemia, with K-562 leukemia, in the test on NCI-H23 lung, with OVCAR-4 ovarian, with SN12C renal and in the test with U251 CNS was above 100 µM in each case. For the same compound, the TGI in the test with UACC-257 melanoma and in the test on UACC-62 melanoma was above 100 µM each time.
`O=C(/C=C/c1ccccc1O)c1ccc([N+](=O)[O-])cc1`: the TGI in the test on CCRF-CEM leukemia was found to be 66.1 µM; with HCT-116 colon, 29 µM; in the test with K-562 leukemia, 71.6 µM; with NCI-H23 lung, 25.4 µM; with OVCAR-4 ovarian it was 25.1 µM; with SN12C renal, 30.8 µM. For the same compound, the TGI was 28.5 µM with U251 CNS, above 100 µM in the test with UACC-257 melanoma and 31.2 µM in the test with UACC-62 melanoma.
For the compound `C=CC(=O)NC(N)=NC#N`, the GI50 with CCRF-CEM leukemia is 130 µM; in the test with K-562 leukemia, 136 µM. The TGI is > 66.1 µM and 317 µM in the test with CCRF-CEM leukemia; 329 µM with HCT-116 colon; 445 µM with K-562 leukemia; 344 µM in the test with NCI-H23 lung; 304 µM in the test on OVCAR-4 ovarian; 293 µM in the test with SN12C renal. Also, the TGI amounted to 296 µM in the test with U251 CNS, 249 µM with UACC-257 melanoma and 294 µM in the test on UACC-62 melanoma.
Consider `O=C1C=CC(=C(c2ccccc2)c2ccc(O)cc2)C=C1`, for which the TGI in the test on CCRF-CEM leukemia is above 100 µM; in the test on HCT-116 colon it was above 100 µM; in the test with K-562 leukemia it was 68.1 µM; in the test on NCI-H23 lung, 42.9 µM; with OVCAR-4 ovarian, 30.2 µM; with SN12C renal, 29.7 µM. Further, the TGI in the test on U251 CNS worked out at 29.2 µM; in the test with UACC-257 melanoma, 31.7 µM; with UACC-62 melanoma, 28.9 µM.
Turning to `O=C1C(=C([O-])c2ccccc2)C(=O)c2ccccc21.O=C1C(=C([O-])c2ccccc2)C(=O)c2ccccc21.[Mn+2]`, the GI50 in the test with OVCAR-4 ovarian is above 100 µM; in the test on SN12C renal, 91.6 µM; with UACC-257 melanoma, 22.6 µM; with UACC-62 melanoma it was 5.48 µM. Moreover, the TGI is above 100 µM in the test on OVCAR-4 ovarian, above 100 µM with SN12C renal, 48.4 µM with UACC-257 melanoma and above 100 µM with UACC-62 melanoma.
`N#CCC(=O)N/N=C1/C(=O)N(c2cc(Cl)ccc2Cl)C(=O)C(=O)C1c1nc2ccccc2s1` (stereo not drawn): the TGI in the test with CCRF-CEM leukemia, in the test on HCT-116 colon, with K-562 leukemia, in the test on NCI-H23 lung, in the test on OVCAR-4 ovarian and in the test with SN12C renal was above 100 µM throughout. In addition, the TGI in the test with U251 CNS was above 100 µM; in the test on UACC-257 melanoma, above 100 µM; in the test with UACC-62 melanoma it was 93.2 µM.
